Assay results taken from PubChem BioAssay AID2060897 (Molecular Pharmacology Branch, DTP, NCI, 2025).

System: 966289-007-R4-J1-PDC complex spheroid viability
Assay: Anticancer human tumor 966289-007-R4-J1-PDC patient-derived pancreatic adenocarcinoma cell line growth inhibition [RAS]
Conditions: for IC50: curve of first compound; for viability, T/C: stronger effect = lower value
Outline: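 Tumour cells grown as complex spheroids with HUVEC endothelial cells and mesenchymal stem cells, treated with RAS pathway inhibitor combinations. Each agent spans half-log steps from near clinical Cmax, or 10 microM where Cmax is unknown.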

[1] = second compound 0.000949 µM, first compound 0.0316 µM
[2] = second compound 0.000949 µM, first compound 0.1 µM
[3] = second compound 0.000949 µM, first compound 0.316 µM
[4] = second compound 0.000949 µM, first compound 1 µM
[5] = second compound 0.000949 µM, first compound 3.16 µM
[6] = second compound 0.000949 µM, first compound 10 µM
[7] = second compound 0.003 µM, first compound 0.0316 µM
[8] = second compound 0.003 µM, first compound 0.1 µM
[9] = second compound 0.003 µM, first compound 0.316 µM
[10] = second compound 0.003 µM, first compound 1 µM
[11] = second compound 0.003 µM, first compound 3.16 µM
[12] = second compound 0.003 µM, first compound 10 µM
[13] = second compound 0.00949 µM, first compound 0.0316 µM
[14] = second compound 0.00949 µM, first compound 0.1 µM
[15] = second compound 0.00949 µM, first compound 0.316 µM
[16] = second compound 0.00949 µM, first compound 1 µM
[17] = second compound 0.00949 µM, first compound 3.16 µM
[18] = second compound 0.00949 µM, first compound 10 µM
[19] = second compound 0.03 µM, first compound 0.0316 µM
[20] = second compound 0.03 µM, first compound 0.1 µM
[21] = second compound 0.03 µM, first compound 0.316 µM
[22] = second compound 0.03 µM, first compound 1 µM
[23] = second compound 0.03 µM, first compound 3.16 µM
[24] = second compound 0.03 µM, first compound 10 µM
[25] = second compound 0.0949 µM, first compound 0.0316 µM
[26] = second compound 0.0949 µM, first compound 0.1 µM
[27] = second compound 0.0949 µM, first compound 0.316 µM
[28] = second compound 0.0949 µM, first compound 1 µM
[29] = second compound 0.0949 µM, first compound 3.16 µM
[30] = second compound 0.0949 µM, first compound 10 µM
[31] = second compound 0.3 µM, first compound 0.0316 µM
[32] = second compound 0.3 µM, first compound 0.1 µM
[33] = second compound 0.3 µM, first compound 0.316 µM
[34] = second compound 0.3 µM, first compound 1 µM
[35] = second compound 0.3 µM, first compound 3.16 µM
[36] = second compound 0.3 µM, first compound 10 µM
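Note: spheroids exposed to agents for one week before readout.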
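Throughout, for viability, T/C: percent viability relative to DMSO vehicle control wells as 100%.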

Cc1nc(N2CCC3(CC2)COC(C)C3N)c(CO)nc1Sc1ccnc(N)c1Cl (centres undefined) + CCn1c(-c2cccnc2C(C)OC)c2c3cc(ccc31)N1CCOC(CC(NC(=O)C(C(C)C)N(C)C(=O)C3(F)CCN(C(=O)C#CC(C)(C)N(C)C)CC3)C(=O)N3CCCC(N3)C(=O)OCC(C)(C)C2)C1
IC50 (second compound 0.000949 µM): > 10 µM | IC50 (second compound 0.003 µM): > 10 µM | IC50 (second compound 0.00949 µM): > 10 µM | IC50 (second compound 0.03 µM): > 10 µM | IC50 (second compound 0.0949 µM): > 10 µM | IC50 (second compound 0.3 µM): > 10 µM | viability, T/C [1]: 123% | viability, T/C [2]: 90.2% | viability, T/C [3]: 119% | viability, T/C [4]: 70.1% | viability, T/C [5]: 67.3% | viability, T/C [6]: 84.8% | viability, T/C [7]: 89.2% | viability, T/C [8]: 89.6% | viability, T/C [9]: 84.7% | viability, T/C [10]: 80.3% | viability, T/C [11]: 86.4% | viability, T/C [12]: 88.9% | viability, T/C [13]: 80.4% | viability, T/C [14]: 83.1% | viability, T/C [15]: 87% | viability, T/C [16]: 90.5% | viability, T/C [17]: 84% | viability, T/C [18]: 82.2% | viability, T/C [19]: 92.4% | viability, T/C [20]: 84.7% | viability, T/C [21]: 89.1% | viability, T/C [22]: 82.6% | viability, T/C [23]: 74.7% | viability, T/C [24]: 97.3% | viability, T/C [25]: 68.9% | viability, T/C [26]: 101% | viability, T/C [27]: 95.9% | viability, T/C [28]: 90.3% | viability, T/C [29]: 106% | viability, T/C [30]: 76.1% | viability, T/C [31]: 95.7% | viability, T/C [32]: 89.2% | viability, T/C [33]: 93.4% | viability, T/C [34]: 144% | viability, T/C [35]: 122% | viability, T/C [36]: 114%

NC1c2ccccc2OC12CCN(c1cnc3c(N4CCCc5ncccc54)n[nH]c3n1)CC2 (centres undefined) + CCn1c(-c2cccnc2C(C)OC)c2c3cc(ccc31)N1CCOC(CC(NC(=O)C(C(C)C)N(C)C(=O)C3(F)CCN(C(=O)C#CC(C)(C)N(C)C)CC3)C(=O)N3CCCC(N3)C(=O)OCC(C)(C)C2)C1
IC50 (second compound 0.000949 µM): > 10 µM | IC50 (second compound 0.003 µM): > 10 µM | IC50 (second compound 0.00949 µM): > 10 µM | IC50 (second compound 0.03 µM): > 10 µM | IC50 (second compound 0.0949 µM): > 10 µM | IC50 (second compound 0.3 µM): > 10 µM | viability, T/C [1]: 113% | viability, T/C [2]: 81.5% | viability, T/C [3]: 109% | viability, T/C [4]: 69.6% | viability, T/C [5]: 82.1% | viability, T/C [6]: 74.5% | viability, T/C [7]: 113% | viability, T/C [8]: 59% | viability, T/C [9]: 102% | viability, T/C [10]: 63.4% | viability, T/C [11]: 91.9% | viability, T/C [12]: 96.9% | viability, T/C [13]: 92.4% | viability, T/C [14]: 76.4% | viability, T/C [15]: 77.6% | viability, T/C [16]: 88.4% | viability, T/C [17]: 104% | viability, T/C [18]: 93.2% | viability, T/C [19]: 62.7% | viability, T/C [20]: 73.7% | viability, T/C [21]: 96.9% | viability, T/C [22]: 74.3% | viability, T/C [23]: 104% | viability, T/C [24]: 94.8% | viability, T/C [25]: 80.9% | viability, T/C [26]: 91.1% | viability, T/C [27]: 128% | viability, T/C [28]: 91.8% | viability, T/C [29]: 117% | viability, T/C [30]: 107% | viability, T/C [31]: 94.4% | viability, T/C [32]: 89.3% | viability, T/C [33]: 96% | viability, T/C [34]: 103% | viability, T/C [35]: 147% | viability, T/C [36]: 91.9%
